Test results published in the NIST ThermoML archive (doi:10.1016/j.fluid.2015.03.033).
“And” between values parts separate entries of the source, which are not always exact repeats. Identical values can stand only once.

Experiments:
[1] = excess molar enthalpy (molar enthalpy of mixing); xn = mol fraction of the nth substance listed; settings: 303.15 K, 100 kPa, Liquid, Calvet calorimetry
[2] = Liquid, Closed cell (Static) method

Cc1cnccn1 [2-methylpyrazine] + Cc1ccccc1
[1]
Settings | excess molar enthalpy [kcal/mol]
x1 = 0.156 | 0.00669
x1 = 0.256 | 0.0115
x1 = 0.421 | 0.0174
x1 = 0.465 | 0.0179
x1 = 0.475 | 0.0179
x1 = 0.561 | 0.0165
x1 = 0.698 | 0.00932
x1 = 0.76 | 0.00693

CCCCCCC [heptane]
[2]
Settings | vapor or sublimation pressure [kPa]
263.45 K | 0.817
273.27 K | 1.548
283.21 K | 2.77
293.25 K | 4.772
303.15 K | 7.807
313.12 K | 12.41
323.1 K | 18.98
333.07 K | 28.13
343.04 K | 40.62
353.01 K | 57.56

C1CCCCC1 [cyclohexane]
[2]
Settings | vapor or sublimation pressure [kPa]
283.32 K | 6.389
288.28 K | 8.195
293.27 K | 10.42
298.25 K | 13.17
303.27 K | 16.45
313.24 K | 24.97
323.21 K | 36.72
333.21 K | 52.48
343.18 K | 72.98
353.14 K | 99.11

Cc1cnccn1 [2-methylpyrazine]
[2]
Settings | vapor or sublimation pressure [kPa]
263.72 K | 0.109
273.47 K | 0.23
283.27 K | 0.457
293.24 K | 0.866
303.18 K | 1.563
313.12 K | 2.697
323.13 K | 4.476
333.11 K | 7.151
343.05 K | 11.03
353.03 K | 16.61
362.95 K | 24.08

Cc1cnccn1 [2-methylpyrazine] + C1CCCCC1
[1]
Settings | excess molar enthalpy [kcal/mol]
x1 = 0.094 | 0.163
x1 = 0.153 | 0.234
x1 = 0.251 | 0.308
x1 = 0.381 | 0.356
x1 = 0.474 | 0.364
x1 = 0.566 | 0.36
x1 = 0.639 | 0.331
x1 = 0.766 | 0.242
x1 = 0.845 | 0.175

Cc1cnccn1 [2-methylpyrazine] + CCCCCCC
[1]
Settings | excess molar enthalpy [kcal/mol]
x1 = 0.082 | 0.135
x1 = 0.175 | 0.257
x1 = 0.335 | 0.353
x1 = 0.411 | 0.369
x1 = 0.481 | 0.37
x1 = 0.523 | 0.369
x1 = 0.622 | 0.344
x1 = 0.704 | 0.298
x1 = 0.809 | 0.231
x1 = 0.877 | 0.167

Cc1ccccc1 [toluene]
[2]
Settings | vapor or sublimation pressure
263.64 K | 0.484 kPa
273.47 K | 0.925 kPa
283.32 K | 1.68 kPa
293.24 K | 2.926 kPa
298.25 K | 3.803 kPa
303.21 K | 4.896 kPa
303.23 K | 4.896 kPa and 4.894 kPa
313.19 K | 7.872 kPa
313.22 K | 7.872 kPa
323.22 K | 12.25 kPa
333.2 K | 18.57 kPa
343.16 K | 27.2 kPa
